The compounds below were run against T1, USP28 (His-tagged USP28-FL-mammalian) (Homo sapiens, UniProt Q96RU2) (assay: Ubiquitin-Rhodamine 110 Assay for USP28 Activity, Example A-1(a)). Conditions: Ub-Rh110 assay, Example A-1(a); read-out: USP28 A-1(a) IC50 range.
T1 construct: Expression of USP28 (1-1077)-TEV-6*His (pTT5 vector); made in house; host or cells: Expi293f cells (pTT5 vector)
T1 sequence (Q96RU2 1-1077): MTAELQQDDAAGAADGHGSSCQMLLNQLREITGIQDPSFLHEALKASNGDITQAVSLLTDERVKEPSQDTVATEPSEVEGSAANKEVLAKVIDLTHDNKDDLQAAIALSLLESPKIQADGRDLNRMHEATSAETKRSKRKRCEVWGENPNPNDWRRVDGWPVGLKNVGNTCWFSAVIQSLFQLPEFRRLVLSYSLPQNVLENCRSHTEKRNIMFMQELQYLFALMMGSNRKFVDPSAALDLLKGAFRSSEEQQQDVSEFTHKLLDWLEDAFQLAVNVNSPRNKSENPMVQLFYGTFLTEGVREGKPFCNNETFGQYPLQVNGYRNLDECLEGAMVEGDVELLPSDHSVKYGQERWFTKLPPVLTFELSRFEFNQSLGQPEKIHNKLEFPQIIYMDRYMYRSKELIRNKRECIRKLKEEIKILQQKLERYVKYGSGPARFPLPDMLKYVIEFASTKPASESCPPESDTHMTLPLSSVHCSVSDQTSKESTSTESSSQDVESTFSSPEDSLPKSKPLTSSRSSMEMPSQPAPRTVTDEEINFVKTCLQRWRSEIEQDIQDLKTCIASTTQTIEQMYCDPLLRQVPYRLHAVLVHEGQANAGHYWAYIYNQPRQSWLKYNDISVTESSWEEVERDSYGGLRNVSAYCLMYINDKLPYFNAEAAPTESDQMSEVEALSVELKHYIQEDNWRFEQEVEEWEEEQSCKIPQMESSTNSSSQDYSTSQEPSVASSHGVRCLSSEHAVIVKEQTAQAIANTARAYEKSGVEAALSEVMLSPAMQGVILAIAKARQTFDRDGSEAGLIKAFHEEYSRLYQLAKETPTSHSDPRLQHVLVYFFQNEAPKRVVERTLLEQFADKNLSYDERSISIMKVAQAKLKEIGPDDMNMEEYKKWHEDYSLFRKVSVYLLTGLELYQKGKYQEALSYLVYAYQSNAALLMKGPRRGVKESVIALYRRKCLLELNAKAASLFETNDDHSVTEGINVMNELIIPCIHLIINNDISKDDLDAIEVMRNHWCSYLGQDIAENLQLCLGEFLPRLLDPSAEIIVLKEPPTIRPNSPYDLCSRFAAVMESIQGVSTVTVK
Type: biochemical
Procedure, shortened: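 IC50 from 4-parameter logistic fit of percent inhibition versus no-enzyme and DMSO controls; compounds 25 μM to 1.3 nM, 3-fold. Ub-Rh110 cleavage (25 nM, below Km) by […] mammalian-expressed USP28-FL-His ran 45 min at room temperature, stopped with 10 mM citric acid, read ex 485/em 535.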
In the case of `Cc1ccc2c(N)c(C(=O)N[C@H]3COc4cc(N5CCNCC5)ccc4C3)sc2n1` (single isomer, unassigned) [Example 1-1], the IC50 is reported as 1 to 50 nM.
Compound `Cc1ccc2c(N)c(C(=O)N[C@@H]3COc4cc(N5CCNCC5)ccc4C3)sc2n1` (single isomer, unassigned) [Example 1-2] has an IC50 of 200 to 2000 nM.
`Cc1ccc2c(N)c(C(=O)N[C@H]3COc4cc(N5CC6CCC(C5)N6)ccc4C3)sc2n1` (single isomer, unassigned) [Example 1-3] gave an IC50 of 1 to 50 nM.
With `Cc1ccc2c(N)c(C(=O)N[C@@H]3COc4cc(N5CC6CCC(C5)N6)ccc4C3)sc2n1` (single isomer, unassigned) [Example 1-4] the IC50 was 200 to 2000 nM.
`Cc1ccc2c(N)c(C(=O)N[C@H]3COc4cc(N5CC6CCCC(C5)N6)ccc4C3)sc2n1` (single isomer, unassigned) [Example 1-5] showed an IC50 of 1 to 50 nM.
Work on `Cc1ccc2c(N)c(C(=O)N[C@@H]3COc4cc(N5CC6CCCC(C5)N6)ccc4C3)sc2n1` (single isomer, unassigned) [Example 1-6] yielded an IC50 of 50 to 200 nM.
With `Cc1ccc2c(N)c(C(=O)N[C@H]3COc4cc(N5CCN[C@H](C)[C@@H]5C)ccc4C3)sc2n1` (single isomer, unassigned) [Example 1-9] the IC50 was 1 to 50 nM.
With `Cc1ccc2c(N)c(C(=O)N[C@@H]3COc4cc(N5CCN[C@H](C)[C@@H]5C)ccc4C3)sc2n1` (single isomer, unassigned) [Example 1-10] the IC50 was 1 to 50 nM.
With `Cc1ccc2c(N)c(C(=O)N[C@H]3COc4cc(N5CCN[C@H](C)[C@H]5C)ccc4C3)sc2n1` (single isomer, unassigned) [Example 1-11] the IC50 was 1 to 50 nM.
With `Cc1ccc2c(N)c(C(=O)N[C@@H]3COc4cc(N5CCN[C@H](C)[C@H]5C)ccc4C3)sc2n1` (single isomer, unassigned) [Example 1-12] the IC50 was 1 to 50 nM.
`Cc1ccc2c(N)c(C(=O)N[C@H]3COc4cc(N5CCN[C@@H](C)[C@@H]5C)ccc4C3)sc2n1` (single isomer, unassigned) [Example 1-13] showed an IC50 of 50 to 200 nM.
For `Cc1ccc2c(N)c(C(=O)N[C@@H]3COc4cc(N5CCN[C@@H](C)[C@@H]5C)ccc4C3)sc2n1` (single isomer, unassigned) [Example 1-14], the IC50 was 50 to 200 nM.
`Cc1nc2sc(C(=O)N[C@H]3COc4cc(N5CCNCC5)ccc4C3)c(N)c2cc1F` (single isomer, unassigned) [Example 1-15] showed an IC50 of 1 to 50 nM.
`Cc1nc2sc(C(=O)N[C@@H]3COc4cc(N5CCNCC5)ccc4C3)c(N)c2cc1F` (single isomer, unassigned) [Example 1-16] was tested, and the IC50 was 200 to 2000 nM.
Work on `Nc1c(C(=O)N[C@H]2COc3cc(N4CC5CCC(C4)N5)ccc3C2)sc2ncc(F)cc12` (single isomer, unassigned) [Example 1-17] yielded an IC50 of 50 to 200 nM.
For `Nc1c(C(=O)N[C@@H]2COc3cc(N4CC5CCC(C4)N5)ccc3C2)sc2ncc(F)cc12` (single isomer, unassigned) [Example 1-18], the IC50 was > 2000 nM.
`Cc1cnc2c(N)c(C(=O)N[C@H]3COc4cc(N5CCNCC5)ccc4C3)sc2n1` (single isomer, unassigned) [Example 1-21] was tested, and the IC50 was 1 to 50 nM.
Compound `Cc1cnc2c(N)c(C(=O)N[C@@H]3COc4cc(N5CCNCC5)ccc4C3)sc2n1` (single isomer, unassigned) [Example 1-22] has an IC50 of 200 to 2000 nM.
Work on `CCn1ccc2cc(C(=O)N[C@@H]3COc4cc(N5CC6CCC(C5)N6)ccc4C3)cnc21` (single isomer, unassigned) [Example 1-27] yielded an IC50 of 200 to 2000 nM.
Work on `CCn1ccc2cc(C(=O)N[C@H]3COc4cc(N5CC6CCC(C5)N6)ccc4C3)cnc21` (single isomer, unassigned) [Example 1-28] yielded an IC50 of 1 to 50 nM.
`Cc1ccc2c(N)c(C(=O)N[C@@H]3COc4cc(N5CC6CCC(C5)N6)cc(F)c4C3)sc2n1` (single isomer, unassigned) [Example 1-30] gave an IC50 of 200 to 2000 nM.
In the case of `Cc1ccc2c(N)c(C(=O)N[C@H]3COc4cc(N5CCNCC5)c(OC(F)(F)F)cc4C3)sc2n1` (single isomer, unassigned) [Example 1-31], the IC50 is reported as 200 to 2000 nM.
`Cc1ccc2c(N)c(C(=O)N[C@@H]3COc4cc(N5CCNCC5)c(OC(F)(F)F)cc4C3)sc2n1` (single isomer, unassigned) [Example 1-32] gave an IC50 of 50 to 200 nM.
For `Cc1nc2sc(C(=O)N[C@H]3COc4cc(N5CCNCC5)cc(F)c4C3)c(N)c2s1` (single isomer, unassigned) [Example 1-37], the IC50 was > 2000 nM.
Work on `Cc1nc2sc(C(=O)N[C@@H]3COc4cc(N5CCNCC5)cc(F)c4C3)c(N)c2s1` (single isomer, unassigned) [Example 1-38] yielded an IC50 of 1 to 50 nM.
With `Cc1nc2sc(C(=O)N[C@H]3COc4cc(N5CC6CCC(C5)N6)cc(F)c4C3)c(N)c2s1` (single isomer, unassigned) [Example 1-39] the IC50 was 1 to 50 nM.
`Cc1nc2sc(C(=O)N[C@@H]3COc4cc(N5CC6CCC(C5)N6)cc(F)c4C3)c(N)c2s1` (single isomer, unassigned) [Example 1-40] showed an IC50 of 200 to 2000 nM.
With `Cc1ccc2c(N)c(C(=O)N[C@@H]3COc4cc(N5CC6CC(C5)N6)cc(F)c4C3)sc2n1` (single isomer, unassigned) [Example 1-41] the IC50 was 1 to 50 nM.
With `Cc1ccc2c(N)c(C(=O)N[C@H]3COc4cc(N5CC6CC(C5)N6)cc(F)c4C3)sc2n1` (single isomer, unassigned) [Example 1-42] the IC50 was 200 to 2000 nM.
`Cc1cnc2c(N)c(C(=O)N[C@H]3CCc4cc(N5CCNCC5)c(C)cc4C3)sc2n1` (single isomer, unassigned) [Example 2-34] gave an IC50 of 50 to 200 nM.
With `Cc1cnc2c(N)c(C(=O)N[C@@H]3CCc4cc(N5CCNCC5)c(C)cc4C3)sc2n1` (single isomer, unassigned) [Example 2-35] the IC50 was > 2000 nM.
In the case of `Cc1cnc2c(N)c(C(=O)N[C@H]3CCc4c(ccc(N5CCNCC5)c4C)C3)sc2n1` (single isomer, unassigned) [Example 2-36], the IC50 is reported as 200 to 2000 nM.
`Cc1cnc2c(N)c(C(=O)N[C@@H]3CCc4c(ccc(N5CCNCC5)c4C)C3)sc2n1` (single isomer, unassigned) [Example 2-37] showed an IC50 of 1 to 50 nM.
`CO[C@H]1CN(c2ccc3c(c2)OC[C@H](NC(=O)c2sc4nc(C)ccc4c2N)C3)C[C@@H]1N` (single isomer, unassigned) [Example 3-1] was tested, and the IC50 was 1 to 50 nM.
For `CO[C@@H]1CN(c2ccc3c(c2)OC[C@H](NC(=O)c2sc4nc(C)ccc4c2N)C3)C[C@H]1N` (single isomer, unassigned) [Example 3-2], the IC50 was 1 to 50 nM.
For `Cc1ccc2c(N)c(C(=O)N[C@H]3COc4cc(N5CCC[C@@](N)(C(F)(F)F)C5)ccc4C3)sc2n1` (single isomer, unassigned) [Example 3-3], the IC50 was 1 to 50 nM.
`Cc1ccc2c(N)c(C(=O)N[C@H]3COc4cc(N5CCC[C@](N)(C(F)(F)F)C5)ccc4C3)sc2n1` (single isomer, unassigned) [Example 3-4] was tested, and the IC50 was 1 to 50 nM.
`Cc1nc2sc(C(=O)N[C@H]3COc4cc(N5CC6CCC(C5)N6)ccc4C3)c(N)c2s1` [Example 1-23, N-((3R)-7-(3,8-diazabicyclo[3.2.1]octan-3-yl)chroman-3-yl)-6-amino-2-methylthieno[2,3-d]thiazole-5-carboxamide] gave an IC50 of 1 to 50 nM.
`Cc1nc2sc(C(=O)N[C@@H]3COc4cc(N5CC6CCC(C5)N6)ccc4C3)c(N)c2s1` [Example 1-24, N-((3S)-7-(3,8-diazabicyclo[3.2.1]octan-3-yl)chroman-3-yl)-6-amino-2-methylthieno[2,3-d]thiazole-5-carboxamide] gave an IC50 of 200 to 2000 nM.

From patent US11524966B1 (Valo Early Discovery, Inc., priority 2017, dated 2022)
